“And” between values parts separate entries of the source, which are not always exact repeats. Equal entries are not always repeated. Each block holds one compound with its values, some of them ahead of it. Residues, ends and D or L forms follow the SMILES beside them.
Assays:
CT26 colon carcinoma [1] = assay: CT26 model, survival in combination with cyclophosphamide; assay type: in vivo, mouse; design: key to Survival data: 0: Censored; Death or tumor volume more than 10% of body weight; conditions: Vehicle+CTX, individual animals
Procedure: (§1) Studies in syngeneic models including B16 melanoma metastasis model and CT26 colon carcinoma subcutaneous model were performed as described. For the Docetaxel combination experiment in CT26 model, indicated dosage of docetaxel (Source: Docetere® injection by Dr Reddy’s Laboratories) was dosed intraperitoneally to animals. For the CA-170 combination groups, CA-170 (10 mg/kg/day, oral) was dosed ~10 min after docetaxel. Animal grouping, treatment efficacy assessment and %TGI calculations were performed as mentioned above. For the CT26 experiment with cyclophosphamide, 100 mg/kg of cyclophosphamide was dosed once on day 5 intraperitoneally after cell implantation (first day of dosing for all other groups). Anti-PD1 antibody (Clone J43 from BioXcel) was dosed intraperitoneally at 100 µg/animal once every week.

PD-L1 = target: T1, PD-L1 (Mus musculus, UniProt Q9EP73); assay: Rescue of PD-L1 mediated inhibition of proliferation, mouse splenocytes; assay type: cell-based; conditions: splenocyte-based assay
T1 construct: purchased R&D Systems 1019-B7-100
T1 sequence (Q9EP73 with tags, fused parts or gaps limits assumed): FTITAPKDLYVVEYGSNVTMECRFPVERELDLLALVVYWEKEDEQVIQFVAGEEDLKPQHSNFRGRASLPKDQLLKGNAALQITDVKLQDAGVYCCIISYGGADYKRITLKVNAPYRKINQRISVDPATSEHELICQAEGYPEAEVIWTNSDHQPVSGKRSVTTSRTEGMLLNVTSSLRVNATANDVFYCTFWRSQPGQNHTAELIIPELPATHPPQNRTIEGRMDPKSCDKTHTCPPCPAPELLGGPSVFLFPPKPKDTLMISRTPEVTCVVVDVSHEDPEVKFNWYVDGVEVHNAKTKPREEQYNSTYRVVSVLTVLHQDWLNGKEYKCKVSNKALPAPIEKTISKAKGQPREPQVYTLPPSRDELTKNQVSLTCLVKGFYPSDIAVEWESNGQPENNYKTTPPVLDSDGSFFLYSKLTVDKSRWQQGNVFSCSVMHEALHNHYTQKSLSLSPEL
Procedure: The ability of peptides, peptidomimetics, and small molecules were analyzed for their ability to rescue T-cell proliferation or IFN-γ release from the inhibitory activity of PD-L1 or PD-L2 in a splenocyte/PBMC-based functional assay as per the protocols reported in publication. […] For all in vitro assays, test agent stock was prepared in water and diluted further in the assay media to achieve test concentrations. Each experimental condition was carried out in triplicates. Percent rescue for a given test compound concentration was calculated by normalizing individual percent test agent proliferation or IFN-γ release values to percent anti-CD3 and anti-CD28 antibodies stimulated proliferation or IFN-γ release. EC50 values were derived by plotting transformed data into non-linear fit in sigmoidal dose–response curve using GraphPad Prism software (Version 7).

Pharmacokinetics in mice = assay type: in vivo, mouse; conditions: mouse, in vivo
Procedure: Animals in Group 1 were administered with 5% w/v dextrose in water and Group 2 were administered with corresponding formulation listed in the Supplementary Table 6 through oral routes. Blood samples (approximately 40 μl) were collected under light isoflurane anesthesia from submandibular at predose, 0.08 (IV), 0.25, 0.5, 1, 2, 4, 8, and 24 h using sparse sampling technique. Plasma samples were separated by centrifugation of whole blood and stored below −70 °C until bioanalysis. All samples were processed for analysis by protein precipitation and analyzed with fit-for-purpose LC–MS/MS method.

CT26 colon carcinoma [2] = assay: CT26 model, combination with docetaxel; assay type: in vivo, mouse; conditions: for TGI: CT26 in Balb/c mice, 12 days; for Individual tumor volumes: individual animals
Procedure: as §1

Structure (SMILES): O=P1(N(CCCl)CCCl)NCCCO1 (stereo not shown) [CTX]
Survival data (CT26 colon carcinoma [1]; day 1 of treatment): 0 | Survival data (CT26 colon carcinoma [1]; day 3 of treatment): 0 | Survival data (CT26 colon carcinoma [1]; day 6 of treatment): 0 | Survival data (CT26 colon carcinoma [1]; day 8 of treatment): 0 | Survival data (CT26 colon carcinoma [1]; day 10 of treatment): 0 | Survival data (CT26 colon carcinoma [1]; day 12 of treatment): 1 and 0 | Survival data (CT26 colon carcinoma [1]; day 14 of treatment): 1 and 0 | Survival data (CT26 colon carcinoma [1]; day 15 of treatment): 0

EC50 (PD-L1): 6 nM
Structure (SMILES): C[C@@H](O)[C@H](NC(=O)[C@H](CC(N)=O)NC(=O)[C@@H](N)CO)C(=O)O [PM-116] (H-Ser-Asn-Thr-OH; N-terminus and C-terminus assumed)

AUC (Pharmacokinetics in mice; iv, 1 mg/kg): 2180 ng·h/mL | clearance (Pharmacokinetics in mice; iv, 1 mg/kg): 22.9 mL/min/kg | bioavailability (Pharmacokinetics in mice; po): 6.8% | oral bioavailability (in words) (Pharmacokinetics in mice; po): not orally bioavailable | AUC (Pharmacokinetics in mice; po, 30 mg/kg): 495 ng·h/mL | Cmax (Pharmacokinetics in mice; po, 30 mg/kg): 554 ng/mL | EC50 (PD-L1): 55 nM
Structure (SMILES): C[C@@H](O)[C@@H]1NC(=O)[C@H](CC(N)=O)NC(=O)[C@H](CO)NC(=O)[C@H](Cc2ccccc2)NC(=O)[C@H](CO)NC(=O)[C@H](CCC(=O)O)NC(=O)[C@H](CO)NC1=O [PM-823] (HELM PEPTIDE1{E.S.F.S.N.T.S}$PEPTIDE1,PEPTIDE1,1:R1-7:R2$$$V2.0)

Structure (SMILES): CC(=O)O[C@@]12CO[C@@H]1C[C@H](O)[C@@]1(C)C(=O)[C@H](O)C3=C(C)[C@@H](OC(=O)[C@H](O)[C@@H](NC(=O)OC(C)(C)C)c4ccccc4)C[C@@](O)([C@@H](OC(=O)c4ccccc4)[C@H]21)C3(C)C [docetaxel]
TGI (CT26 colon carcinoma [2]; single agent docetaxel 1 mg/kg): 44% | TGI (CT26 colon carcinoma [2]; single agent docetaxel 10 mg/kg): 43% | Individual tumor volumes (CT26 colon carcinoma [2]; Docetaxel 1mg/kg, day 1 of treatment): 22.15 mm3 and 31.55 mm3 and 34.9 mm3 and 45.07 mm3 and 50.49 mm3 and 58.82 mm3 and 62.62 mm3 and 76.97 mm3 and 88.69 mm3 | Individual tumor volumes (CT26 colon carcinoma [2]; Docetaxel 1mg/kg, day 4 of treatment): 46.4 mm3 and 28.72 mm3 and 78.5 mm3 and 62.65 mm3 and 97.03 mm3 and 124.03 mm3 and 118.17 mm3 and 67.74 mm3 and 149.61 mm3 | Individual tumor volumes (CT26 colon carcinoma [2]; Docetaxel 1mg/kg, day 6 of treatment): 132.42 mm3 and 19.09 mm3 and 90.17 mm3 and 95.74 mm3 and 164.49 mm3 and 224.32 mm3 and 158.95 mm3 and 86.49 mm3 and 198.71 mm3 | Individual tumor volumes (CT26 colon carcinoma [2]; Docetaxel 1mg/kg, day 8 of treatment): 186.57 mm3 and 10.93 mm3 and 133.19 mm3 and 151.25 mm3 and 260.04 mm3 and 385.2 mm3 and 276.47 mm3 and 199.1 mm3 and 392.38 mm3 | Individual tumor volumes (CT26 colon carcinoma [2]; Docetaxel 1mg/kg, day 11 of treatment): 263.17 mm3 and 22.61 mm3 and 143.19 mm3 and 316.97 mm3 and 451.22 mm3 and 764.37 mm3 and 562.88 mm3 and 301.78 mm3 and 690.4 mm3 | Individual tumor volumes (CT26 colon carcinoma [2]; Docetaxel 10mg/kg, day 1 of treatment): 22.87 mm3 and 29.49 mm3 and 35.8 mm3 and 43.1 mm3 and 51.4 mm3 and 57.21 mm3 and 63.02 mm3 and 74.99 mm3 and 92.42 mm3 | Individual tumor volumes (CT26 colon carcinoma [2]; Docetaxel 10mg/kg, day 4 of treatment): 54.41 mm3 and 32.56 mm3 and 76.21 mm3 and 71.86 mm3 and 73.1 mm3 and 87.77 mm3 and 117.98 mm3 and 93.45 mm3 and 48.5 mm3 | Individual tumor volumes (CT26 colon carcinoma [2]; Docetaxel 10mg/kg, day 6 of treatment): 109.48 mm3 and 42.16 mm3 and 129.37 mm3 and 103.08 mm3 and 111.56 mm3 and 155.23 mm3 and 165.2 mm3 and 163.17 mm3 and 79.31 mm3 | Individual tumor volumes (CT26 colon carcinoma [2]; Docetaxel 10mg/kg, day 8 of treatment): 163.72 mm3 and 98.83 mm3 and 244.12 mm3 and 203.26 mm3 and 199.06 mm3 and 316.02 mm3 and 316.69 mm3 and 217.54 mm3 and 105.3 mm3 | Individual tumor volumes (CT26 colon carcinoma [2]; Docetaxel 10mg/kg, day 11 of treatment): 322.31 mm3 and 251.42 mm3 and 447.21 mm3 and 378.85 mm3 and 332.62 mm3 and 662.99 mm3 and 641.53 mm3 and 377.51 mm3 and 200.96 mm3

Source: publication PMC8187357 (Communications Biology, 2021)
